In article PMC6274350, “Design, Synthesis, and Cytotoxicity of 5-Fluoro-2-methyl-6-(4-aryl-piperazin-1-yl) Benzoxazoles” (Molecules, 2016):

What was measured:
[1] = system: A-549 lung carcinoma cells; experiment: CellTiter-Glo luminescent cell viability (cytotoxicity) assay on lung cancer cells; format: cell-based, human; details: for viability at 0.1 µM / viability at 1 µM / viability at 10 µM / viability at 50 µM / viability at 100 µM / viability at 250 µM / viability at 500 µM: Homo sapiens, A549, Lung cancer cells (A-549), 24 h, vs DMSO vehicle
Protocol: (§1) The cytotoxicity of prepared benzoxazoles (7a–j) and intermediates (6a–j and 9) were measured by applying the CellTiter-Glo® luminescent cell proliferation assay (G755A, Promega, Madison, WI, USA). This method permits the determination of viable cells numbers in the culture based on quantitation of the ATP present, which denotes the presence of metabolically active cells. In vitro cytotoxicity analysis was overall performed following the protocol as described in “Guidance Document on Using in Vitro Data to Estimate in Vivo Starting Doses for Acute Toxicity Based on Recommendations” [18]. Human A-549 cells are human lung cancer epithelial cells, which were chosen as the tumor model, whereas the HepaRG™ cell line is a classic hepatic cell line that retains many characteristics of primary human hepatocytes. HepaRG™ cells are terminally differentiated.
(§2) Human cell cultures: Hepatocytes (HepaRG^TM cells) were obtained from Life Technologies, and were cultivated in William’s E Medium (Gibco, Life Technologies, Waltham, MA, USA) and supplemented with 1x GlutaMAX™ plus 1x HepaRG^TM General Purpose Medium Supplement in 25-cm^2 or 75-cm^2 flasks (TPP, Trasadingen, Switzerland) at 37 °C and 5% CO2. Lung cancer epithelial cells A-549 were propagated in Epilife Medium (Gibco, Life Technologies; MEPICF) and combined with CaCl2 and 1x-growth-supplement containing penicillin and streptomycin (Gibco, Life Technologies). For sub-culturing, cells were split at a ratio of 1:4 to 1:8. For cryopreservation, cells were frozen in 10% DMSO in liquid nitrogen.
(§3) Human cytotoxicity assay: Human hepatocytes or human lung carcinoma cells were seeded into sterile black clear-bottomed polystyrene Corning® CellBind® 96-well plates (Munich, Germany) at a density of 20,000 cells/well after calculating cell numbers from trypsinized samples in a classical Neubauer Improved hemocytometer (VWR, Munich, Germany). The cells were grown for 24 h at 37 °C in a 5% CO2 atmosphere in Epilife medium (keratinocytes) or William′s E medium (hepatocytes). After a 24-h recovery period, media were removed from the wells by aspiration. The cells were then immediately exposed to the respective test compounds or reference antibiotics (prepared in advance in 100 µL of the same media) for 24 h 37 °C with 5% CO2. The concentration tested ranged from 0.1 µM to 500 µM (0.1 µM, 1 µM, 10 µM, 50 µM, 100 µM, 250 µM, and 500 µM) and was formulated as a 100× concentrated stock each, resulting in a final constant DMSO concentration of 1% per 100-µL sample volume. Test series were each performed in triplicate, and additionally included a vehicle reference (DMSO only) plus another internal control for evaluating overall assay performance. Additionally, cells were visually examined under a light microscope for any morphological abnormalities relative to the untreated cells. Subsequently, cell viability, as an indicator of potential cytotoxicity, was measured by applying the CellTiter-Glo® luminescent cell proliferation assay (G755A, Promega, Madison, WI, USA). This method permits the determination of the number of viable cells in culture based on quantitation of the ATP present, which denotes the presence of metabolically active cells. To this end, 100 µL (equal to the volume of culture medium) of the kit-provided CellTiter-Glo® reagent (reconstituted by transferring the thawed CellTiter-Glo® buffer to the lyophilized enzyme and substrate mixture) was directly added to each well with a repetitive dispensing pipette. The contents were then mixed for 2 min at room temperature on an orbital minishaker (IKA® MS3 digital, Staufen, Germany) at 450 rpm to induce efficient cell lysis, and then further incubated for 10 min at room temperature for stabilization of the resultant luminescent signal. […]

[2] = CellTiter-Glo luminescent cell viability (cytotoxicity) assay on hepatocytes; format: cell-based, human; details: human, Liver cells, hepatocytes (HepaRG), 24 h, vs DMSO vehicle
Protocol: as §1, §2, §3

[3] = system: HepaRG cells (liver cells, hepatocytes); experiment: as above; format: cell-based, human; details: for Toxicity to healthy cells versus lung cancer cells: 50 µM, HepaRG vs A-549
Protocol: as §1, §2, §3

[4] = Visible solubility / precipitation of test compounds in cell-culture media; format: physicochemical; details: for Solubility at test concentrations: cell-culture media, 0.1-500 µM; for Precipitation in cell-culture media: 50 µM, no conclusion on cytotoxicity possible
Protocol: Since the majority of test compound solutions with concentrations above 50 µM precipitated in cell-culture media, we performed cytotoxicity assays for healthy and cancer cells at 50 µM.

Row | Structure (SMILES) | viability at 0.1 µM [1] | viability at 1 µM [1] | viability at 10 µM [1] | viability at 50 µM [1] | viability at 100 µM [1] | melting point | viability at 24 h, 0.1 µM [2] | viability at 24 h, 1 µM [2] | viability at 24 h, 10 µM [2] | viability at 24 h, 50 µM [2] | viability at 24 h, 100 µM [2] | viability at 250 µM [1] | viability at 24 h, 250 µM [2] | viability at 24 h, 500 µM [2] | Precipitation in cell-culture media [4] | other results
1 | Cc1ccc(N2CCN(c3cc4oc(C)nc4cc3F)CC2)cc1 [Compound 7b, 5-Fluoro-2-methyl-6-(4-p-tolyl-piperazin-1-yl)-benzooxazole] | 92% | 94% | 92% | 87% | 75% | 168 to 170 °C | 105% | 99% | 91% | 63% | 60% | – | – | – | – | Toxicity to healthy cells versus lung cancer cells [3]: more toxic to healthy cells compared with lung cancer cells
2 | COc1cccc2c1C(=O)c1c(O)c3c(c(O)c1C2=O)C[C@@](O)(C(=O)CO)C[C@@H]3O[C@H]1C[C@H](N)[C@H](O)[C@H](C)O1 [doxorubicine, reference compound] | – | – | – | – | – | – | – | – | – | – | – | – | – | – | – | IC50 ([3]; Homo sapiens, HepaRG cells, standard): 5.1 µM
3 | O=[N+]([O-])c1cc(F)c(N2CCN(c3ccc(F)cc3)CC2)cc1O [Compound 6d, 4-Fluoro-5-[4-(4-fluoro-phenyl)-piperazin-1-yl]-2-nitro-phenol] | 103% | 111% | 78% | 58% | 54% | 151 to 152 °C | 94% | 87% | 101% | 57% | 62% | 46% | 44% | 13% | – | CT50 ([1]; A-549 lung cancer cells, equal toxicity to both cell lines): ~ 50 µM; viability at 500 µM [1]: 34%; Solubility at test concentrations [4]: completely soluble at all concentrations; CT50 ([3]; hepatocytes (HepaRG), equal toxicity to both cell lines): ~ 50 µM
4 | Cc1nc2cc(F)c(N3CCN(c4ccccc4F)CC3)cc2o1 [Compound 7g, 5-Fluoro-6-(4-(2-fluorophenyl)-piperazin-1-yl)-2-methylbenzo[d]oxazole] | 96% | 92% | 92% | 73% | 63% | 157 to 158 °C | 96% | 106% | 87% | – | – | – | – | – | precipitation problem | –
5 | Cc1nc2cc(F)c(N3CCN(c4ccc(F)cc4)CC3)cc2o1 [Compound 7d, 5-Fluoro-6-[4-(4-fluoro-phenyl)-piperazin-1-yl]-2-methyl-benzooxazole] | 98% | 98% | 87% | 87% | 82% | 148 to 150 °C | 91% | 94% | 85% | – | – | – | – | – | precipitation problem | –
6 | Cc1nc2cc(F)c(N3CCN(c4ccc(Cl)c(Cl)c4)CC3)cc2o1 [Compound 7j, 6-[4-(3,4-Dichloro-phenyl)-piperazin-1-yl]-5-fluoro-2-methyl-benzooxazole] | 98% | 94% | 81% | 70% | 47% | 147 to 148 °C | 100% | 90% | 85% | 65% | 27% | 28% | 7% | 7% | precipitation problem | Toxicity to healthy cells versus lung cancer cells [3]: more toxic to healthy cells compared with lung cancer cells
7 | Cc1nc2cc(F)c(N3CCN(c4cccc(O)c4)CC3)cc2o1 [Compound 7h, 3-[4-(5-Fluoro-2-methyl-benzooxazol-6-yl)-piperazin-1-yl]-phenol] | 100% | 93% | 97% | 95% | 90% | 211 to 213 °C | 100% | 102% | 99% | – | – | – | – | – | precipitation problem | –
8 | Cc1nc2cc(F)c(N3CCN(c4ccccc4O)CC3)cc2o1 [Compound 7f, 2-[4-(5-Fluoro-2-methyl-benzooxazol-6-yl)-piperazin-1-yl]-phenol] | 103% | 99% | 91% | 91% | 95% | 172 to 173 °C | 106% | 97% | 86% | 59% | 60% | 83% | 53% | 54% | – | viability at 500 µM [1]: 63%; Solubility at test concentrations [4]: completely soluble at all concentrations
